Biological target: T1, dihydropyridine (DHP) site (Oryctolagus cuniculus, UniProt P07293)
T1 construct: Washed rabbit skeletal muscle membranes (fraction 2-8X); from tissue; host or cells: rabbit skeletal muscle, washed membranes (fraction 2-8X)
Assay: 3H-nitrendipine binding assay on washed rabbit skeletal muscle membranes
Conditions: read-out: Binding Assay KI (moles)
Experimental: The incubation tubes were rapidly chilled in ice and the contents filtered through Whatman GF/B filters on a Millipore manifold, and the filters washed with 2×10 ml ice-cold HEPES buffer. The filters were placed in scintillation counting vials with 8 ml of Cytoscint cocktail, disrupted mechanically by shaking for 30 minutes and counted.
Drugs which interact at the dihydropyridine (DHP) site will reduce this specific binding in a dosedependent manner. The assays for the compounds of this invention were made with logarithmically spaced concentrations, the data were plotted on a probitconcentration plot, and the IC50 read off. The KI of the compound was calculated by standard techniques.

T1 sequence (P07293 1-1664 limits assumed): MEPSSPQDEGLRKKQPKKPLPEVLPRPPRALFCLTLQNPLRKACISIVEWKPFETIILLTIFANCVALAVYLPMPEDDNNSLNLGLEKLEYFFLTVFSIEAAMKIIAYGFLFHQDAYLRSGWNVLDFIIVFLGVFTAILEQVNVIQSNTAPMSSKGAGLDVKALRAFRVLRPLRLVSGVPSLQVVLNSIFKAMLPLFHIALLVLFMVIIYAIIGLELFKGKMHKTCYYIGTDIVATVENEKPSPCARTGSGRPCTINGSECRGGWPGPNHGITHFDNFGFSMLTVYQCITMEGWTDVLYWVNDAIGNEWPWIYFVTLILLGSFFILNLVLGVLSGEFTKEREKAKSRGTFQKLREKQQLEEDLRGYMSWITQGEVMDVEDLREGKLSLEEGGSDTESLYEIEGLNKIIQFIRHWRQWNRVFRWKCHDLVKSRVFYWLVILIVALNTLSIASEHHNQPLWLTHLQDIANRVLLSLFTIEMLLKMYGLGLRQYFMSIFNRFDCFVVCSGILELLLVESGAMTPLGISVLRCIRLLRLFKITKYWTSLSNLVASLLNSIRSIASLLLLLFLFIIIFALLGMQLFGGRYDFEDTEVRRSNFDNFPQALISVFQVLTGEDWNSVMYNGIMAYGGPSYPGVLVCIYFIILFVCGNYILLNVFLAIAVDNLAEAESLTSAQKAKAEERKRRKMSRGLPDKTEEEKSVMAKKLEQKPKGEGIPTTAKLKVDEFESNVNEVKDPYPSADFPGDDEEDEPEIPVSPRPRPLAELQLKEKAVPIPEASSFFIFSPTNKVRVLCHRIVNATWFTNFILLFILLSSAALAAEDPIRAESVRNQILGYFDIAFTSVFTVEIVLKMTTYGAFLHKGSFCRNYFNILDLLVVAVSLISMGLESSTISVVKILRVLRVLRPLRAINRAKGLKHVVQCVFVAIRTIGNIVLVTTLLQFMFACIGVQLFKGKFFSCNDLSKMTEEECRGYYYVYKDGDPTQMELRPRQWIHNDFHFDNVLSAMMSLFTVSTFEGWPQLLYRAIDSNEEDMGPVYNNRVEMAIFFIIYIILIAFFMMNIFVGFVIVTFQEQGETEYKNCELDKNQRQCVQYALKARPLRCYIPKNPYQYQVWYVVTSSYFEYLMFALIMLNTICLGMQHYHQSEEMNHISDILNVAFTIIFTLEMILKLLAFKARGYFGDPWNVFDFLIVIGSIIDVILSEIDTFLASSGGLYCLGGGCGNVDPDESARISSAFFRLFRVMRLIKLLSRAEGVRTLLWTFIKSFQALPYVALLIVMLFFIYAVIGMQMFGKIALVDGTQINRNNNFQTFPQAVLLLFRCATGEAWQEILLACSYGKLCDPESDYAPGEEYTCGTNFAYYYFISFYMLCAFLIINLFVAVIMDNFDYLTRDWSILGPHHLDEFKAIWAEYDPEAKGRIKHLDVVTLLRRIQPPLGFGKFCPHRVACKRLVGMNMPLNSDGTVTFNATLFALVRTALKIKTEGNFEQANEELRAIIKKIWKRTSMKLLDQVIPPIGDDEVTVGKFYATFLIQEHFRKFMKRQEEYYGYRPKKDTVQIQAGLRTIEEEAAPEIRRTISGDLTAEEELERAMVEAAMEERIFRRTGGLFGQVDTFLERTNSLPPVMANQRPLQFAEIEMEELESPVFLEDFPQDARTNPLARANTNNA
T1 sequence (P13806 27-960 partner limits assumed): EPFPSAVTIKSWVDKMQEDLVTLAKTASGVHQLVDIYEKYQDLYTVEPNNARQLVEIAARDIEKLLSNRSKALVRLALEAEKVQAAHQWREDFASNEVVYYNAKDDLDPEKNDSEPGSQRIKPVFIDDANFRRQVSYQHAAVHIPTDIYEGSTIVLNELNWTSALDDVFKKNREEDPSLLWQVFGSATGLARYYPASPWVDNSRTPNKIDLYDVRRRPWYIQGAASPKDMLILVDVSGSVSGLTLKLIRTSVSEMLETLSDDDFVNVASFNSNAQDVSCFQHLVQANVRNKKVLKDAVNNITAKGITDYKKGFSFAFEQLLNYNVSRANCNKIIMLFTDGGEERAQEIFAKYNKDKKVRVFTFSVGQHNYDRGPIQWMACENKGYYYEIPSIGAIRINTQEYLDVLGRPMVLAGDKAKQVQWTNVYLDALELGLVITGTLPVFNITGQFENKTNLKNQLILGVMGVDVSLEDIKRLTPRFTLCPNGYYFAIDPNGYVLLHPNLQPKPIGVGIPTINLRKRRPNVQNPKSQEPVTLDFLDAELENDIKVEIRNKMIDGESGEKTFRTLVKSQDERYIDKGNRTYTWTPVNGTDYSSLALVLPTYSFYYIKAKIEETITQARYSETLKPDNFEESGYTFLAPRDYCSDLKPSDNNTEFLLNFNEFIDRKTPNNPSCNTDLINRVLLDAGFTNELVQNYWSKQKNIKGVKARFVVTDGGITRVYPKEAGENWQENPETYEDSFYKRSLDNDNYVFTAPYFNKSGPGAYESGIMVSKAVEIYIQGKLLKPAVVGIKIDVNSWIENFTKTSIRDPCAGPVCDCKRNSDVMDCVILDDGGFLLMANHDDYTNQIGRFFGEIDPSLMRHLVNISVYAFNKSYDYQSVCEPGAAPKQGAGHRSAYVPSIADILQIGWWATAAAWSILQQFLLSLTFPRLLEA
T1 sequence (P13806 961-1106 partner limits assumed): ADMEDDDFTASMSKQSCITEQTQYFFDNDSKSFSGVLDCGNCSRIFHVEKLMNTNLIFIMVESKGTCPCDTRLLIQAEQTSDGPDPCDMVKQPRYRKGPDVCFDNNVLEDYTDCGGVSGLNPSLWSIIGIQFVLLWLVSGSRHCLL
T1 sequence (P19517 whole entry partner): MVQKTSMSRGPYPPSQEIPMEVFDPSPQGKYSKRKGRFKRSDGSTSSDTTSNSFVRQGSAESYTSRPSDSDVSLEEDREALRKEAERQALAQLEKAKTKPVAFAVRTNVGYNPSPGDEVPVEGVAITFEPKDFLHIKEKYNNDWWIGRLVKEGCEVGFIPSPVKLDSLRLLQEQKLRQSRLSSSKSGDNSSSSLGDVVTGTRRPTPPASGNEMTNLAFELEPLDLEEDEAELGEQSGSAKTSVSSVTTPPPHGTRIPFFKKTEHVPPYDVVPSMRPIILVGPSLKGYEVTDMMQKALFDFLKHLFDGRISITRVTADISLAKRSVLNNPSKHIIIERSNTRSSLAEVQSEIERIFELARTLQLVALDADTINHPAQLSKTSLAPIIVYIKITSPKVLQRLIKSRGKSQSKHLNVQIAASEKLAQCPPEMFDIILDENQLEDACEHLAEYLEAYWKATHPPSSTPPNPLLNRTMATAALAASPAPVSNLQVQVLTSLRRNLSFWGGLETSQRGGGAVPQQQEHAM
T1 sequence (P19518 whole entry partner): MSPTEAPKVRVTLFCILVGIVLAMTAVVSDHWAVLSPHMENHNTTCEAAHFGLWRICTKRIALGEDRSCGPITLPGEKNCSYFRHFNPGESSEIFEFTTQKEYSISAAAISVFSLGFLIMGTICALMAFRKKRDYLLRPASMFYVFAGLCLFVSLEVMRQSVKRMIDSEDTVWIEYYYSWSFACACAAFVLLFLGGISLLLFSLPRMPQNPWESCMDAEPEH

Compound	Ki [nM]
COC(=O)C1=C(C)NC(C)=C(C(=O)OCCCN=C=S)C1c1cccc([N+](=O)[O-])c1 (stereo not shown) [Example 8, 1,4-Dihydro-2.6-dimethyl-4-(3-nitrophenyl)-3,5-pyridine dicarboxylic acid, 3-(3-isothiocyanatopropyl)-5-methyl ester]	1.6
COC(=O)C1=C(C)NC(C)=C(C(=O)OCCN=C=S)C1c1cccc([N+](=O)[O-])c1 (stereo not shown) [Example 7, 1,4-Dihydro-2,6-dimethyl-4-(3-nitrophenyl)-3,5-pyridine dicarboxylic acid, 3-(2isothiocyanatoethyl)-5-methyl ester]	1.3
COC(=O)C1=C(C)NC(C)=C(C(=O)OCCCCCCN=C=S)C1c1cccc([N+](=O)[O-])c1 (stereo not shown) [Example 9, 1,4-Dihydro-2,6-dimethyl-4-(3-nitrophenyl)-3,5-pyridine dicarboxylic acid, 3-(6-isothiocyanatohexyl)-5-methyl ester]	1.9

Second part, the molecule after the results:

Ki [nM]	Compound
105	CCOC(=O)C1=C(CCN2C(=O)c3ccccc3C2=O)NC(C)=C(C(=O)OC)C1c1cccc([N+](=O)[O-])c1 (stereo not shown) [12(e), 1,4-Dihydro-6-methyl-4(3-nitrophenyl)2-(2-phthalimidoethyl)-3,5-pyridine dicarboxylic acid-3-ethyl-5-methyl ester]
> 100	COC(=O)C1=C(C)NC(C)=C(C(=O)OCCN)C1c1cccc([N+](=O)[O-])c1 (stereo not shown) [Example 3, 1,4-Dihydro-2,6-dimethyl-4-(3-nitrophenyl)-3,5-pyridine dicarboxylic acid, 3-(2-aminoethyl)-5-methyl ester]
1250	COC(=O)C1=C(C)NC(C)=C(C(=O)OCCN)C1c1cccc(C)c1 (stereo not shown) [Example 2, 1,4-Dihydro-2,6-dimethyl-4-(3-methylphenyl)-3,5-pyridine dicarboxylic acid, 3-(2-aminoethyl)-5-methyl ester]
1120	CCOC(=O)C1=C(CCN2C(=O)c3ccccc3C2=O)NC(CCN2C(=O)c3ccccc3C2=O)=C(C(=O)OCC)C1c1cccc([N+](=O)[O-])c1 [Example 13, 1,4-Dihydro-4(3-nitrophenyl)-2,6-(2-phthalimidoethyl)-3,5-pyridine dicarboxylic acid, ethyl ester]
